The results in this text go back to ChEMBL document CHEMBL1201862, “PubChem BioAssay data set” (2004).

The source made the active and inactive calls.

A short description of assay [1]: luciferase reporter signal suppression in cells – H4 neuroglioma cells, luminescence, dose response (AID 1990). It is filed as functional, cell-based.
A short description of assay [2]: Luminescence Cell-Based Dose Response HTS to Identify Inhibitors of 5'UTR Stem-Loop Driven Prion Protein mRNA Translation in H4 Neuroglioblastoma Cells. [Related pubchem assays: 1827 (Project Summary), 1813 (Primary HTS)]. Format: functional.
For assay [3], the target named is Transitional endoplasmic reticulum ATPase (Homo sapiens, UniProt P55072, C522A). Nature of the assay: C522A mutant p97 ATPase inhibitors, dose response, counter-screen for p97 inhibitor project, biochemical, luminescence (AID 1544). On the technique in general: A counterscreen serves to expose hits that act by an unwanted route or on another target.
Chain of Transitional endoplasmic reticulum ATPase (P55072 2-806 C522A limits assumed): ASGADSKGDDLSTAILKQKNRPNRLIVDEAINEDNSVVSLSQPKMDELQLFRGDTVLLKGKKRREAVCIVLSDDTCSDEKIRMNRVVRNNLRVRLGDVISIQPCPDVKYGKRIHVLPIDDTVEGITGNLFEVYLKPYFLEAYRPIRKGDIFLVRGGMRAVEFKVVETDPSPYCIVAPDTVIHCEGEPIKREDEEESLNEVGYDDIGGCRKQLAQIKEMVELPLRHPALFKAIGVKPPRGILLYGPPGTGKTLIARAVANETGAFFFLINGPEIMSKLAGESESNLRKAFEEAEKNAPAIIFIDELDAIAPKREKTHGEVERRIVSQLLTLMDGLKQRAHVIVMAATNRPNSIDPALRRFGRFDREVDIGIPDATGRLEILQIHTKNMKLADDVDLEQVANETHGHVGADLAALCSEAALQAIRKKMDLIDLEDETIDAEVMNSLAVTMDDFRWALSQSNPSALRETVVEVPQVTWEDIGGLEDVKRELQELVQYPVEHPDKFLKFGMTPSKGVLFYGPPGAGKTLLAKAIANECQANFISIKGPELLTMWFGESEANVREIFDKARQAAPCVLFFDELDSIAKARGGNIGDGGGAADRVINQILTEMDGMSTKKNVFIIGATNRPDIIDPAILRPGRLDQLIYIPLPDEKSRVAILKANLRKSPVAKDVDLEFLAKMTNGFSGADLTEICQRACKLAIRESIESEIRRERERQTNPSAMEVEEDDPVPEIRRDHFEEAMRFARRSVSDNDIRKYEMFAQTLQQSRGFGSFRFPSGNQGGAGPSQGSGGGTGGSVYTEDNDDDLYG
A short description of assay [4]: Intein inhibitors as potential Tuberculosis drugs, a cytotoxicity screen. [Related pubchem assays (depositor defined):AID2221, AID2223, AID434968, AID435010, AID449749, AID449750, AID489010]. It is filed as functional.
The target in assay [5] is T1, Hexokinase HKDC1 (Homo sapiens, UniProt Q2TB90).
T1 sequence (Q2TB90 whole entry): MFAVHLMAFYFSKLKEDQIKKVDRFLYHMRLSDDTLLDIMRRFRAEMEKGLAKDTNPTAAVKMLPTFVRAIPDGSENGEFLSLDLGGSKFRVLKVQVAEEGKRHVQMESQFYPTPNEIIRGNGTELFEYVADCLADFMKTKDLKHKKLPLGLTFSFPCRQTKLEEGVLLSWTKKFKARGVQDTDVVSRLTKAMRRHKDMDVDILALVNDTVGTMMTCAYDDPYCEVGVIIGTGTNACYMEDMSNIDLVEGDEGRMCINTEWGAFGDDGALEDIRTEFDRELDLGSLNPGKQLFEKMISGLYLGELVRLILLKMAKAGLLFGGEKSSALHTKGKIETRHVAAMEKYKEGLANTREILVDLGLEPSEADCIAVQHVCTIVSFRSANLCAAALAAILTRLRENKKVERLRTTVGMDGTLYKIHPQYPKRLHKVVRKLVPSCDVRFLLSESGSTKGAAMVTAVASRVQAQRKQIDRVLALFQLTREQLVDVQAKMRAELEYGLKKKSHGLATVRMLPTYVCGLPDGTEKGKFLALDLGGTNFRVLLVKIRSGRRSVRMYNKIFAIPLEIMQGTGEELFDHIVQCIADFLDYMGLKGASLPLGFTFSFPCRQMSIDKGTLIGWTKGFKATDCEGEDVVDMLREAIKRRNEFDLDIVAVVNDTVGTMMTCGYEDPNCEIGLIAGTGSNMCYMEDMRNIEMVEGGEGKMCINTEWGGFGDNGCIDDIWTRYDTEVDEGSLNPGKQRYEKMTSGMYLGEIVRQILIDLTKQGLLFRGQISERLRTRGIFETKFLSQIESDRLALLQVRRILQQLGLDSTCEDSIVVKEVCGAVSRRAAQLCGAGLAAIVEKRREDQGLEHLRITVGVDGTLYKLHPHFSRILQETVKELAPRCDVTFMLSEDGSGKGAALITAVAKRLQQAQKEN
Nature of the assay: activation of HKDC1 glucose phosphorylation – biochemical, W721R variant, dose response (AID 504730). It is filed as functional.

In assay [6] the target is Caspase-7 (Homo sapiens, UniProt P55210). Nature of the assay: caspase-7 enzyme inhibition, selectivity check – biochemical, DEVD-R110 fluorescence, cherry-pick, selectivity assay for caspase-6 inhibitor project, dose response (AID 743295). Format: functional.
Chain of Caspase-7 (P55210 24-198 limits assumed): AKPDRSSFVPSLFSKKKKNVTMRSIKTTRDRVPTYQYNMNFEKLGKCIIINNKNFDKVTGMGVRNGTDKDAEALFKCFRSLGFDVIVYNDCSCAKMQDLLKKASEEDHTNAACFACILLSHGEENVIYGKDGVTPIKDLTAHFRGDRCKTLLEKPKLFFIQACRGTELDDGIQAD
Chain of Caspase-7 (P55210 207-303 limits assumed): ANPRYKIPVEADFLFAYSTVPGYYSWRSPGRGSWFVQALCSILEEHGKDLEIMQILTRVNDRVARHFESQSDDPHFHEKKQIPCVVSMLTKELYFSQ
The target of assay [7] is T2, Rac GTPase-activating protein 1 (Homo sapiens, UniProt Q9H0H5).
T2 sequence (Q9H0H5 whole entry): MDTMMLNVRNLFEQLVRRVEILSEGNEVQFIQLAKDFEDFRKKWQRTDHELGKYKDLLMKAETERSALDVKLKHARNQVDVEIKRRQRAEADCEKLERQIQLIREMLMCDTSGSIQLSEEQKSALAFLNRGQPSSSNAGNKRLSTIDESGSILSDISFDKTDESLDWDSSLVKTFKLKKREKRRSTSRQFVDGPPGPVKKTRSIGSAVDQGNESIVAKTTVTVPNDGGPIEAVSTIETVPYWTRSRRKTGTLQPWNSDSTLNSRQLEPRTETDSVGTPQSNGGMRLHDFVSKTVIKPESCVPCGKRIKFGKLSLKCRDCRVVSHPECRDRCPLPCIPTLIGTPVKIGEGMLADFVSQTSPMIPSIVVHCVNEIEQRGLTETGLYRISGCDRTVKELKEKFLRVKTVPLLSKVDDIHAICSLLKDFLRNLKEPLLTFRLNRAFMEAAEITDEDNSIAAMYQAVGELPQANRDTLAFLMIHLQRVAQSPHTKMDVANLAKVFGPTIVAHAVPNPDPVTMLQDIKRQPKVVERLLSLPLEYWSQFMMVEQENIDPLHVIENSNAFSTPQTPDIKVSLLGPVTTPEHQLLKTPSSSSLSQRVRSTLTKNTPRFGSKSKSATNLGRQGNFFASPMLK
Nature of the assay: blockers of MgcRacGAP-driven Rac1 GTP hydrolysis – biochemical, ADP Hunter fluorescence, primary and confirmatory, confirmation (AID 624330). It is filed as functional.

The nature of assay [8]: fluconazole-exposed Candida albicans growth modulators – fluorescence, retest, confirmation (AID 2467). It is filed as functional, cell-based.
Assay [9] has as its target ATP-dependent molecular chaperone HSP82 (Candida albicans (strain WO-1) (Yeast), UniProt C4YTQ8). Nature of the assay: steroid-induced GRE reporter decrease in yeast – S. cerevisiae, luminescence, Hsp90 inhibitor project, dose response (AID 2400).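 Note: beta-galactosidase luminescence from glucocorticoid response element reporter as proxy for Hsp90 function; inhibitor potency where signal loss means Hsp90 inhibition.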 Format: functional, cell-based.
A short description of assay [10]: loss of viability in HepG2 cells – cell-based, CellTiter-Glo, cherry-picked, cytotoxicity control for Shn3 inhibitor project, dose response (AID 624134). Format: functional. On the technique in general: In ATP-based viability assays light output follows the ATP content of the culture.
Assay [11] concerns BJ. Nature of the assay: cells. Particulars: Homo sapiens. Format: functional, cell-based.
Assay [12] deals with BJ. Nature of the assay: BJ-TERT-LT-ST fibroblast viability loss – cell-based, RAS-independent, luminescence, dose response (AID 1935).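 Note: BJ fibroblasts immortalized with TERT plus LT and ST oncogenes.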 Format: functional. Particulars: Homo sapiens.
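Throughout, for CC50: cells exposed to compound for 72 hours before luminescence readout.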

Chain of ATP-dependent molecular chaperone HSP82 (C4YTQ8 whole entry): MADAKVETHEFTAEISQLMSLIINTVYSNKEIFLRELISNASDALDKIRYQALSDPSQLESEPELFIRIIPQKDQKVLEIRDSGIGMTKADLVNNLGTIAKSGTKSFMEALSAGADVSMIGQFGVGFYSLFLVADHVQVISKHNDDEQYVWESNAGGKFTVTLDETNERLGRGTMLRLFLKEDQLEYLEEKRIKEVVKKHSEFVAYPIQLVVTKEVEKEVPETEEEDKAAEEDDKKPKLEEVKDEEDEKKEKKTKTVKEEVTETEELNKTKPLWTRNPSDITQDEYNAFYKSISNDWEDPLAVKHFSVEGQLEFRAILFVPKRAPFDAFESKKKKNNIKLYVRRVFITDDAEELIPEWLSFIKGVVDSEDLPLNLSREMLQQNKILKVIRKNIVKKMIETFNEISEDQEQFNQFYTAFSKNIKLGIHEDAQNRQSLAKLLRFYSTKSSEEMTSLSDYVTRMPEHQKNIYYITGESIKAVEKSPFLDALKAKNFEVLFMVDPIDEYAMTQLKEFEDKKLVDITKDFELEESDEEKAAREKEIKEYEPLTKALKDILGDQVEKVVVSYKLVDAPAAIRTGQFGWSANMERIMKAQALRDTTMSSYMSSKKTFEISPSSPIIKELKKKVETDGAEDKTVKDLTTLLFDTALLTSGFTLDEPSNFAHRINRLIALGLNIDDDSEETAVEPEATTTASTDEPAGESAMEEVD

In the case of `Cn1nc(-c2ccc(Cl)cc2)nc2c(=O)n(C)c(=O)nc1-2`, the EC50 in [1] is 5.59 µM (inconclusive); in assay [2] it was > 120 µM (not active). The IC50 in [3] is > 50 µM (not active). The CC50 in [4] is > 40 µM (active).

As for `SC1=Nc2ccccc2C1`, in assay [5], the EC50 is 18 µM (active).

On to `NS(=O)(=O)c1ccc(NC(=O)COC(=O)c2ccc([N+](=O)[O-])s2)cc1`, for which the AC50 in assay [6] was > 22 µM (inactive).

On to `CCCCNc1cc(NC(C)=O)cc2cc(OC)c(OC)cc12`, for which the concentration for half-maximal inhibition (IC50) in assay [7] is 39.5 µM (active).

For the molecule `COc1ccc(C(NC(=O)C(C)C)c2ccc3cccnc3c2O)cc1` (configuration not stated), the values for the EC50 in assay [8] and in assay [9] were 0.692 µM (active) and 52.4 µM (active), respectively. In assay [10], the AC50 was 1.27 µM (active).

Consider `O=C(Cc1ccc([N+](=O)[O-])cc1)N/N=C/c1ccc([N+](=O)[O-])o1`, for which the EC50 in assay [11] was 15.6 µM (active); in assay [12], 18.3 µM (active).

What is called EC50 is the midpoint of the concentration-response curve. A word on the IC50: it is the concentration that inhibits the measured activity by half. As usually defined, the CC50 is the concentration giving 50% cytotoxicity. A word on the AC50: it is the concentration at which the activity in the assay is half-maximal.
